Measurements as given in patent US7608716B2, “Pyrazolonaphthyridine derivative” (Aska Pharmaceutical Co., Ltd., priority 2002, dated 2009).

What was measured:
TNF-α production = assay: Inhibition of TNF-α production in galactosamine- and LPS-stimulation; type: in vivo; conditions: Mus musculus; C3H/HeN mice, oral, 1 hour before galactosamine/LPS i.v.; serum TNF-α by ELISA 1 hour later; read-out: Inhibition of TNF-α production ED50: mg/kg orally
Method: A suspension of each test compound in 0.5% CMC-Na solution was administered orally to C3H/HeN mice at a dose of 0.10 to 10 mg/kg. One hour later, the animals received intravenously galactosamine at a dose of 800 mg/kg and LPS at a dose 5 μg/kg to raise the induction of TNF-α production. One hour later after the galactosamine- and LPS-administration, amounts of TNF-α in serum samples were measured by ELISA, and ED50 was obtained. Roflumilast and SB207499 were used for the reference compounds in this assay.

[1] = tested on: lung neutrophil infiltration; assay: Inhibition of lung neutrophil infiltration (LPS inhalation, BALF); type: in vivo, Hartley guinea-pigs; conditions: Cavia porcellus, guinea-pigs, oral, 1 hour before LPS inhalation, BALF neutrophils at 24 hours, read-out: Inhibition of Lung Neutrophil Infiltration ED50: mg/kg orally
Method: Hartley guinea-pigs were orally received a suspension of test compounds at a dose of 0.03 to 3 mg/2 mL/kg. One hour later, the animals were received 0.1 mg/mL lipopolylsaccharide (LPS) in a physiological saline via an inhalational route with a nebulizer for 30 minutes. Twenty-four hours after the LPS inhalation, BALF samples were collected, and neutrophils were counted.

[2] = tested on: lung eosinophil infiltration; assay: Inhibition of lung eosinophil infiltration (OVA-sensitized, BALF); type: in vivo, Hartley guinea-pigs; conditions: Cavia porcellus, guinea-pigs, oral, 1 hour before OVA inhalation, BALF eosinophils at 24 hours, read-out: Inhibition of Lung Eosinophil Infiltration ED50: mg/kg orally
Method: Hartley guinea-pigs were sensitized by inhaling twice 1% ovalbumin (OVA) in a physiological saline for 10 minutes with a nebulizer (Atom Medical Corporation, Japan) at an interval of 1 week. The animals were orally given a suspension of test compounds at a dose of 0.03 to 3 mg/2 mL/kg one week after the final sensitization. One hour later, the animals were exposed to antigens by inhalation of 2% OVA in a physiological saline for 5 minutes with a nebulizer. Thirty minutes before the antigen challenge, the animals were intraperitoneally pretreated with pyrilamine at a dose of 10 mg/kg to avoid fatality due to anaphylactic shock. Bronchoalveolar lavage fluid (BALF) samples were collected 24 hours after the exposure by inhalation of antigens, and eosinophils were counted.

Beagle dogs = assay: Emetic action on dogs; type: in vivo; conditions: oral, 1 mg/kg
Method: Beagle dogs received a suspension of each test compound in 0.5% CMC-Na solution orally at a dose of 1 mg/2 mL/kg.

[3] = tested on: actively sensitized guinea pigs; assay: Inhibition of antigen-induced immediate asthmatic response (airway resistance, Konzett-Rossler); type: in vivo, Hartley guinea pigs; conditions: Cavia porcellus, oral, 60 minutes prior to antigen-challenge, reduction of increase in airway resistance, read-out: Inhibition of Asthmatic response ED50: mg/kg orally
Method: Male Hartley outbred guinea pigs were sensitized by administering intraperitoneally physiological saline (0.5 ml) containing ovalbumin (1 mg, antigen) and 5×10^9 inactivated Bordetella pertussis dead cells (adjuvant). Eleven to thirteen days after the first sensitization, 0.05 ml of an ovalbumin solution (1 mg/ml) (ovalbumin is dissolved in physiological saline) was administered to the lateroabdominal region of each guinea pig intracutaneously. An establishment of sensitization was checked relying on cutaneous reaction. Only guinea pigs wherein significant reddening responses occurred 5 to 10 minutes later were employed in the next measurement test for airway resistance.
The guinea pigs (3 animals per group) actively sensitized in the above step (1) were employed to measure for their airway pressure according to Konzett-Rossler method (Arch. Exp. Path. Pharmakol., 195, 71 (1940)).
Thirteen days after the final sensitization, guinea pigs fasted overnight, and were on the next day anesthetized with a pentobarbital solution (30 mg/1.2 ml/kg, dissolved in physiological saline, intraperitoneal administration). After the guinea pigs were fixed in a supine position, their trachea was incised followed by insertion with one port of a 4-port cannula. Among the remaining 3 ports, 2 ports were connected to an artificial respirator (Model 683, Harvard). The animals were ventilated with 10 ml/kg of air per ventilation at a rate of 60 beats/min via the artificial respirator from the cannula. One port remainder was connected to a respiratory amplifier (AR-601G, Nihon Kohden, Japan) via an airflow resistance tube (TV-241T, Nihon Kohden, Japan) and a differential pressure transducer (TP-602T, Nihon Kohden, Japan) connected with a control box (RY-111S, Nihon Kohden, Japan). From a catheter inserted into a left carotid artery, blood pressures were monitored with a blood pressure measurement unit (AP641G, NEC Corp., Japan) via a blood pressure transducer (TP-300T, Nihon Kohden, Japan), and heart rates were recorded on a thermal recorder (WT-685G, Nihon Kohden, Japan), relying on blood pressure pulse waves after being led to a cardiograph unit (AT601G, Nihon Kohden, Japan).
After airway pressure became stable, an ovalbumin solution (1 mg/ml, dissolved in physiological saline) was administered at a dose of 1 ml/kg via a tube with which the right jugular vein of guinea pigs was cannulated.
Each test compound was suspended in 0.5% CMC-Na solution and administered orally with an oral sound at a dose of 0.03 to 20 mg/2 ml/kg 60 minutes prior to the antigen-challenge. Control groups received only 0.5% CMC-Na solution in an equivalent amount. The pentobarbital-anesthetization and tracheal incision were conducted 30 minutes prior to the antigen-challenge.
Each percent reduction of increase in airway resistance (each test compound-administered group versus control group) was calculated according to the equation given below. ED50 was obtained by Probit method.

CYP3A4 = molecular target: T1, CYP3A4 (Homo sapiens, UniProt P08684); assay: Inhibition of drug-metabolizing enzyme CYP3A4 (CYP3A4/BFC kit); type: in vitro ADME; conditions: CYP3A4-expressing microsomes, BFC substrate, 37° C., 30 minutes; read-out: Inhibition of Drug-Metabolizing Enzymes (IC50; μM) CYP3A4
T1 construct: purchased BD Biosciences, NJ, USA; host or cells: CYP3A4-expressing system microsomes
Method: (§1) The inhibitory effect on CYP2D6 and CYP3A4 was determined using High Throughput Inhibitor Screening Kits: CYP2D6/AMMC and CYP3A4/BFC (both from BD Biosciences, NJ, USA). Briefly, each of NADPH regenerating systems, cofactors, and test compounds was dispensed into 96-well plates, followed by addition of each of fluorescent substrates, AMMC (CYP2D6) or BFC (CYP3A4). To each well were added CYP2D6-expressing system microsomes or CYP3A4-expressing system microsomes, and the plates were incubated at 37° C. for 30 minutes, and then read for fluorescent signals (CYP2D6: ex=390 nm, em=460 nm; CYP3A4: ex=409 nm, em=538 nm wherein excitation wavelength: ex and emission wavelength: em). Thus, each inhibitory efficacy on enzymes CYP2D6 and CYP3A4 was determined. Roflumilast was used for the reference compound in this assay.

CYP2D6 = molecular target: T2, CYP2D6 (Homo sapiens, UniProt P10635); assay: Inhibition of drug-metabolizing enzyme CYP2D6 (CYP2D6/AMMC kit); type: in vitro ADME; conditions: CYP2D6-expressing microsomes, AMMC substrate, 37° C., 30 minutes; read-out: Inhibition of Drug-Metabolizing Enzymes (IC50; μM) CYP2D6
T2 construct: purchased BD Biosciences, NJ, USA; host or cells: CYP2D6-expressing system microsomes
Method: as §1

T2 sequence (P10635 whole entry): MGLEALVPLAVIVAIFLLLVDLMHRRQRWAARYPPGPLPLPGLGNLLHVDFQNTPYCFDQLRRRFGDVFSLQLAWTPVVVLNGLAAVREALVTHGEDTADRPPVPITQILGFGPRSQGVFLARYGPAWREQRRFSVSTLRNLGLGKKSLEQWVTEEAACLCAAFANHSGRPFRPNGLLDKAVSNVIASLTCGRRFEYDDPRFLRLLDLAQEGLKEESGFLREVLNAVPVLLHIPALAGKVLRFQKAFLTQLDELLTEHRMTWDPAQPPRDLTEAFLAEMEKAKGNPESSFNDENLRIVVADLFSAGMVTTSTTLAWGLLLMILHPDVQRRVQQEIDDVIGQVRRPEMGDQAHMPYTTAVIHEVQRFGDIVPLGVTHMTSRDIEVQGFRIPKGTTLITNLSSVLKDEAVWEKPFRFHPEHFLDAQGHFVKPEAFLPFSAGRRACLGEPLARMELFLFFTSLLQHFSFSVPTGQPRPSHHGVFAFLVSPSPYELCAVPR
T1 sequence (P08684 whole entry): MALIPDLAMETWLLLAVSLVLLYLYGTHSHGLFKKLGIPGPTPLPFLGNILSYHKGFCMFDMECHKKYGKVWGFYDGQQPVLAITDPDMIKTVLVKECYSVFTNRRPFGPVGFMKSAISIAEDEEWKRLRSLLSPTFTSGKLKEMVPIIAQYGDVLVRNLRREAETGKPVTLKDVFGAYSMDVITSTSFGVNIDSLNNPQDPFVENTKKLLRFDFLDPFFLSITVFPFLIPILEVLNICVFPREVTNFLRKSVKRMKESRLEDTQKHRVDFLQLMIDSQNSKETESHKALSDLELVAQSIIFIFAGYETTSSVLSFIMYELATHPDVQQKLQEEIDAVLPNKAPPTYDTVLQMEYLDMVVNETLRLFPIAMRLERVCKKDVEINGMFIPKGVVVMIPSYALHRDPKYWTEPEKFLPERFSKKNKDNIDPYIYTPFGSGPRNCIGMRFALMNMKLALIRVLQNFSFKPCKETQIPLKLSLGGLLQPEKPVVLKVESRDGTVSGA

## O=C(Nc1c(Cl)cncc1Cl)c1ccc(OC(F)F)c(OCC2CC2)c1 [Roflumilast, 3-(cyclopropylmethoxy)-N-(3,5-dichloro-4-pyridyl)-4-(difluoromethoxy)benzamide, reference compound]
TNF-α production
  ED50: 0.26 mg/kg
[1]
  ED50: 0.98 mg/kg
[2]
  ED50: 0.36 mg/kg
Beagle dogs
  Occurrence of emesis: 2 animals among 3 were afflicted with emetic reactions
[3]
  ED50: 0.66 mg/kg
CYP3A4
  IC50: 0.98 µM
CYP2D6
  IC50: 9.1 µM
